Reference: patent publication US20230095509A1, “NON-FIBRILLAR HEMOGLOBIN S OLIGOMERS AND METHODS TO IDENTIFY MODULATORS OF HEMOGLOBIN S POLYMERIZATION” (REGENTS OF THE UNIVERSITY OF MINNESOTA, priority 2021, published 2023)
“Also recorded” adds a separate entry of the source.

How the values were obtained:
[1] = target: T1, deoxyHbS oligomers (HbS-rhodamine red / HbS-Cy5) (Homo sapiens, UniProt P68871+P69905, E7V); experiment: Fluorescence lifetime (FLT) FRET assay of deoxyHbS oligomerization (LOPAC screen and dose response); assay type: biochemical
T1 construct: purchased Sigma
Procedure: Development of HTS platform for identification of small molecules that inhibit in vitro HbS nucleation: Sickle hemoglobin (HbS) (sigma) was labeled with either fluorescent donor (rhodamine red) or acceptor (Cy5) dyes (Thermo fisher scientific) via a cysteine thiol group. For labeling, lyophilized HbS (10 mg/ml) was dissolved in PBS (Sigma) and then centrifuged at 13000 g for five minutes at 4° C. to remove the debris. After centrifugation protein sample was incubated with TCEP (0.5-1 mM) for 20 minutes at room temperature to reduce the cysteine side-chain. This protein mixture was incubated with 1.5 mM dye (dissolved in DMSO or water) for two hours in the dark at room temperature or overnight at 4° C. Unreacted free dye was removed by dialysis against PBS. The degree of labeling was calculated by comparing the absorption of the fluorophore conjugated hemoglobin at 280 nm to the absorbance of the dye at its maximum wavelength. The dye concentration was measured by absorbance, using extinction coefficients of 250,000 M −1 cm -1 for Cy5 conjugates and 88000 M −1 cm -1 for Rhodamine Red conjugates.
High-Throughput Screening of LOPAC Library to Identify Compounds That Inhibit HbS Oligomerization Under Deoxy Condition: The LOPAC compounds (Thermo Fisher Scientific) were received in 96-well plates. Assay plates were prepared by transferring 5 nL of the 10 mM compound stocks or DMSO from the source plates to 1536-well black polypropylene plates (Greiner), using an Echo 550 acoustic dispenser (Labcyte). During screening, donor sample (HbS/Rhodamine Red) was mixed with acceptor (HbS/Cy5) at 1:5 ratios. Then protein samples were dispensed (5 μL, 25 μM) by a Multidrop Combi Reagent Dispenser (Thermo Fisher Scientific) into the 1536-well assay plates containing the compounds and incubated at room temperature for two hours. After incubation, protein samples were degassed for 10-15 minutes using vacuum argon degassing method. Lifetime measurements were taken by the fluorescence lifetime plate reader (Fluorescence Innovations, Inc).
Fluorescence Data Acquisition: We tested the functionality of the HbS FRET pair by measuring lifetimes of oxy-and deoxy HbA and HbS using a fluorescence lifetime plate reader (FIG. 3A). Lifetimes are reciprocally related to FRET, so a decrease in lifetime corresponds to an increase in FRET. Donor fluorescence was excited with a 532 nm laser (Teem Photonics SNG-20F-100, Meylan, France), delivering pulses of -0.3 μJ energy at a 20 kHz repetition rate, and emission was filtered with 546 nm long pass and 586/20 nm band pass filters. This filter was selected to exclude acceptor fluorescence, as only the lifetime of the donor fluorescent protein is required to calculate FRET (Equation (1)). The photomultiplier tube (PMT) voltage was adjusted so that the peak signals of the instrument response function (IRF) and FRET biosensor were similar.
High-Throughput Screening Data Analysis: Time resolve-fluorescence waveforms for each well were fitted with single-exponential decays using least-squares minimization global analysis software (Petersen et al., F2014, Rev Sci Instrum 85, 113101). FRET efficiency (E) was determined as the fractional decrease of donor lifetime (T_D ), due to the presence of acceptor fluorophore (T_DA) using equation 1: […]
These drug compounds were dissolved in DMSO to make 20 mM stock solution. Hits were screened at seven different concentrations. Protein samples were dispensed into the 96-well assay plates and incubated with hit compounds at room temperature for two hours. After incubation, protein samples were degassed for 10 minutes using vacuum argon degassing method. Lifetime measurements were taken by the fluorescence lifetime plate reader (Fluorescence Innovations, Inc).

[2] = target: deoxy-HbS oligomers (sickle hemoglobin, HbS) (Homo sapiens, UniProt P68871+P69905, E7V); experiment: Dynamic light scattering (DLS) of deoxy-HbS oligomers at sub-nucleating concentration; assay type: biochemical; conditions: HbS 25 μM, hit compounds 100 μM, two hours at room temperature, degassed with argon; FIG. 4C
Procedure: (FIG. 4A) Pilot screening with LOPAC library. Compounds that reduced the FRET efficiency below 3SD (black line) were selected for further characterization. […] Fluorescently labeled HbS samples were plated in a 1536 plate and treated separately with DMSO or the three hit compounds, chlormezanone, gabazine, and phosphoramidon disodium, in a dose-dependent manner from 0.1 to 1000 μM for 2 hours at room temperature and then vacuum degassed for 10 minutes, and then donor lifetimes were measured using a fluorescence plate reader. […] HbS samples (25 μM) were incubated separately with hit compounds (100 μM) or DMSO only for two hours at room temperature and degassed with argon for five minutes, and then DLS measurement were taken at room temperature. […] Effect of hit compounds on polymerization of deoxyHbS in high potassium phosphate buffer. Curves represent growth of polymer as a function of time in the presence or absence of drug.

SMILES | FRET efficiency in dose response ([1]; 0.1 to 1000 μM, 2 hours at room temperature, then degassed, FIG. 4B) | size of deoxyHbS oligomers (DLS effective diameter) relative to control [2] | FRET efficiency of HbS under deoxy conditions ([1]; known polymerization inhibitors as controls, FIG. 1D)
CC(C)C[C@H](NP(=O)(O)O[C@@H]1O[C@@H](C)[C@H](O)[C@@H](O)[C@H]1O)C(=O)N[C@@H](Cc1c[nH]c2ccccc12)C(=O)O [phosphoramidon disodium] | decreased FRET efficiency in a dose-dependent manner | significantly decreased the oligomer size | 
N[C@@H](Cc1ccccc1)C(=O)O [phenylalanine] |  |  | decreased the FRET efficiency; also recorded: reduced FRET efficiency
